Results taken from patent publication US20230414759A1, “NOVEL CYCLIC PEPTIDES BASED ON NANOBIOSTRUCTURAL CONTROL, PEPTIDESOMES WITH CORE/SHELL STRUCTURE COMPRISING SAME, AND USES THEREOF” (UIF (University Industry Fpimdatopm), Yonsei University, priority 2022, published 2023).

Assays:
SCC7 cells [1] = experiment: Photodynamic killing of cancer cells, MTT assay after laser irradiation; format: cell-based; conditions: 24 hours, IR laser 671 nm 1.59 J/cm^2, peptidesome in DW
Experimental: SSC7 (squamous cell carcinoma 7) cells were treated with free Pa or the coassembled peptidesome of Example 4-6d (R6:RGD2<-Pa) (1:9) at 30 μM for 24 hours, followed by infrared (IR) laser (671 nm) irradiation at 1.59 J/cm^2. Cytotoxicity as a measure of the photodynamic killing of the cancer cells was determined by MTT assay.
As the samples, 2 μg/mL of free Pa, 2 μg/mL of the coassembled peptidesome of Example 4-6d (R6:RGD2<-Pa) (1:9) (G&G) and 2 μg/mL of the coassembled peptidesome of Example 4-6d (R6:RGD2<-Pa) (1:9) (DW) were used. DW means that distilled water was used instead of the G&G solution.

SCC7 cells [2] = experiment: Cellular uptake by CLSM and flow cytometry (FACS); format: cell-based; conditions: 2 μg/mL, 4 hours
Experimental: Analysis of intracellular delivery efficiency and FACS in vitro Cellular uptake of materials in SCC7 cells was analyzed based on the intrinsic fluorescence of Pa via CLSM (LSM700, Carl Zeiss, Germany) and flow cytometry (FACS Canto II, BD Biosciences, Bedford, MA, USA). SCC7 cells were seeded onto a 24-well plate at a density of 5×10^4 and incubated overnight. Then, […] of a sample was added to […] of a culture medium for each well. The cells were treated with the sample for 4 hours. Then, the sample was removed and the cells were washed. For cell imaging, cell nuclei were stained with Hoechst 33342.
SCC7 cells were seeded in a 24-well plate at a density of 5×10^4 and incubated overnight. Then, […] of the sample was added to […] of a culture medium. The cells were treated with the sample for 4 hours, followed by removal of the sample and washing. For cell imaging, the cell nuclei were stained with Hoechst 33342. The uptake of materials by the SCC7 cells was analyzed based on the intrinsic fluorescence of Pa via CLSM (LSM700, Carl Zeiss, Germany) and flow cytometry (FACS Canto II, BD Biosciences, Bedford, MA, USA).
As the samples, 2 μg/mL of free Pa, 2 μg/mL of the coassembled peptidesome of Example 4-6d (R6:RGD2<-Pa) (1:9) (G&G) and 2 μg/mL of the coassembled peptidesome of Example 4-6d (R6:RGD2<-Pa) (1:9) (DW) were used. […]

SCC7 cell-derived cancer = experiment: In-vivo antitumor efficacy (PDT) in xenograft mouse model; conditions: after 14 days
Experimental: SCC7 tumor-bearing mouse models were prepared similarly to the biodistribution analysis. When the tumor volume reached approximately 50 mm^3, the sample was intravenously injected into the xenograft mice. 3 hours after the sample injection, NIR laser (671 nm) was irradiated to the tumor site with a power of 0.53 W/cm^2 for 15 minutes, and the same sample injection and NIR irradiation were repeated on the next day. The tumor volume and body weight were recorded every two days. At the end of the therapy, major organs and tumors were dissected for histological analysis. […]
Squamous cell carcinoma 7 (SSC7) cells were cultured in an RPMI 1640 medium containing 10% FBS, 1% L-glutamine, 1% penicillin, streptomycin, etc. in a 37° C. incubator maintained at 5% carbon dioxide. The cultured cells were detached from the bottom of the flask using trypsin/EDTA and cell viability was evaluated by trypan blue exclusion assay. […]
After the injection of the sample to each group, tumor volume and body weight were recorded 2 days, 4 days, 6 days, 8 days, 10 days, 12 days and 14 days later. […] The organs and cancer tissues were fixed, prepared into cryosections, stained with hematoxylin and eosin (H&E) and observed with a fluorescence microscope (Axiolmager A1, Zeiss, Germany).

[3] = cited from earlier work
[4] = Average hydrodynamic diameter of peptidesomes by DLS at different temperatures; format: physicochemical; conditions: distilled water, 20-40° C.
Experimental: The size of self-assembled nanoparticles (SNPs) was analyzed by a dynamic light scattering size distributor (particle size & zeta potential analyzer, ELS-1000ZS, Otsuka Electronics, Japan) using a UV-transparent cuvette having a path length of 1 cm. The secondary structure of the cyclic peptides of SPNs was analyzed using a Chirascan circular dichroism spectrometer equipped with a Peltier temperature controller (Applied Photophysics, UK). The CD (circular dichroism) spectra of samples were analyzed in a range of 190-260 nm using a cuvette having a path length of 2 mm. The molar residue ellipticity of the samples was calculated per amino acid residue. All mouse experiments were conducted under an animal protocol approved by the Catholic University of Korea on Laboratory Animal Care (2020-0359-05).
It was confirmed from the foregoing experiment that the cyclic peptides prepared in Examples 2-1 to 2-3 form vesicular self-assembled structure when stored in distilled water (DW). The average hydrodynamic diameter (Dn) of the self-assembled structures was measured by dynamic light scattering (DLS) at different temperatures (20° C., 30° C., 40° C.).

Molecule: pheophorbide a [free Pa]
- PDT effect (cell viability after laser irradiation) (SCC7 cells [1]): dose-dependent PDT effect
- cell internalization efficiency of free Pa relative to the coassembled peptidesome (SCC7 cells [2]): 5 fold
- weight of the excised tumor (SCC7 cell-derived cancer; 2 mg/kg, tail vein, NIR laser): 1,222 mg
- excised tumor weight of free Pa group relative to peptidesome<-Pa(G&G) group (SCC7 cell-derived cancer): approximately 3 times
- water solubility [3]: 14 µg/mL

Molecule: CCCCCCCCCCCC(=O)N[C@H]1CCCCNC(=O)[C@H](Cc2c[nH]c3ccccc23)NC(=O)CCC(=O)NCCOCCOCCNC(=O)[C@H](CCCNC(=N)N)NC(=O)[C@H](CCCNC(=N)N)NC(=O)CCC(=O)NCCOCCOCCNC(=O)[C@H](Cc2c[nH]c3ccccc23)NC1=O [Example 2-1]
- average diameter of peptidesome (DLS) [4]: 99-127 nm
